Source: patent publication US20160304461A1, “QUINOLONE COMPOUND AND PHARMACEUTICAL COMPOSITION” (OTSUKA PHARMACEUTICAL CO., LTD., priority 2007, published 2016)

How the values were obtained:
[1] = system: human neuroblastoma cell lines SH-SY5Y; assay: Improvement of mitochondrial dysfunction in MPP+-treated SH-SY5Y cells (Alamar Blue mitochondrial oxidation reduction activity); type: cell-based; conditions: SH-SY5Y cells in 1.5 mM MPP+ medium, relative to cells in DMSO alone = 100%, read-out: Fluorescence Intensity (%); for activity at 0.01 µg/mL: test compound 0.01 μg/ml; for activity at 0.03 µg/mL: test compound 0.03 μg/ml; for activity at 0.1 µg/mL: test compound 0.1 μg/ml; for activity at 0.3 µg/mL: test compound 0.3 μg/ml; for activity at 1 µg/mL: test compound 1 μg/ml
Protocol: Evaluation of Improvement of Mitochondrial Dysfunction using Human Neuroblastoma Cell Lines SH-SY5Y Treated with 1-methyl-4-phenylpyridinium (MPP^+)
In human neuroblastoma cell lines SH-SY5Y in which mitochondrial activity was injured by MPP^+ treatment (Bollimuntha S. et al., J Biol Chem, 280, 2132-2140 (2005) and Shang T. et al., J Biol Chem, 280, 34644-34653 (2005)), improvement of the mitochondrial dysfunction was evaluated on the basis of the measurement value of the mitochondrial oxidation reduction activity using Alamar Blue fluorescent dye after the compound addition (Nakai M. et. al, Exp Neurol, 179, 103-110 (2003)).
The human neuroblastoma cell lines SH-SY5Y were cultured in Dulbecco's Modified Eagle's Medium containing 10% fetal bovine serum (DMEM containing 50 units/ml penicillin and 50 μg/ml streptomycin as antibiotics) at 37° C. in the presence of 5% carbon dioxide. Cells were scattered on a poly-D-lysine-coated 96-well black plate at a concentration of 3-6×10^4 cells/cm^2 (medium amount: 100 μl/well), and cultured in the above medium for two days. Further, the medium was changed to a DMEM containing a 1% N2 supplement (N2-DMEM) or to a medium (100 μl/well) in which 1.5 mM MPP^+ was dissolved. The cells were cultured therein for 39 to 48 hours, and then subjected to a mitochondrial oxidation reduction activity measurement system. A sample compound that had been previously dissolved in dimethyl sulfoxide (DMSO) was diluted with N2-DMEM, and added in a volume of 10 μl/well 24 hours before the activity measurement (final compound concentration: 0.01 to 1 μg/ml).
After removal of the medium by suction, a balanced salt solution containing 10% Alamar Blue (154 mM sodium chloride, 5.6 mM potassium chloride, 2.3 mM calcium chloride, 1.0 mM magnesium chloride, 3.6 mM sodium bicarbonate, 5 mM glucose, 5 mM HEPES, pH 7.2) was added in a volume of 100 μl/well, and reacted in an incubator at 37° C. for 1 hour. The fluorescent intensity was detected using a fluorescence detector (a product of Hamamatsu Photonics K.K., excitation wavelength 530 nm, measurement wavelength 580 nm) to thereby measure the mitochondrial oxidation reduction activity.
The fluorescent intensity of the well of the cells cultured in a medium containing MPP^+ and in each of the sample compounds was relatively evaluated based on a 100% fluorescent intensity of the well of the cells cultured in a medium containing DMSO alone (final concentration: 0.1%).

Compound | melting point | activity at 0.01 µg/mL [1] | activity at 0.03 µg/mL [1] | activity at 0.1 µg/mL [1] | activity at 0.3 µg/mL [1] | activity at 1 µg/mL [1]
COCCN(C)c1ccc(F)c2c(=O)c(-c3ccc(OC)cc3)c[nH]c12.Cl [Example 34, 5-Fluoro-8-[N-(2-methoxyethyl)-N-methylamino]-3-(4-methoxyphenyl)-1H-quinolin-4-one hydrochloride] | 100 to 101 °C | 69% | 74% | 77% | 78% | 87%
COc1ccc(-c2c[nH]c3c(OC4CCCC4)ccc(F)c3c2=O)cc1 [Example 37, 8-Cyclopentyloxy-5-fluoro-3-(4-methoxyphenyl)-1H-quinolin-4-one] | 213 to 215 °C | 64% | 73% | 78% | 70% | 61%
CCCSc1ccc(F)c2c(=O)c(-c3ccc(OC)cc3)c[nH]c12 [Example 40, 5-Fluoro-3-(4-methoxyphenyl)-8-propylsulfanyl-1H-quinolin-4-one] | 173 to 174 °C | 60% | 64% | 76% | 70% | 72%
COc1ccc(-c2c(C)[nH]c3c(OCC4CC4)ccc(F)c3c2=O)cc1 [Example 47, 8-Cyclopropylmethoxy-5-fluoro-3-(4-methoxyphenyl)-2-methyl-1H-quinolin-4-one] | 167 to 169 °C | 51% | 58% | 71% | 73% | 82%
CCCOc1ccc(F)c2c(=O)c(-c3ccc(OC)nc3OC)c[nH]c12 [Example 64, 3-(2,6-Dimethoxypyridin-3-yl)-5-fluoro-8-propoxy-1H-quinolin-4-one] | 198 to 199 °C | 55% | 65% | 74% | 72% | 77%
CCn1cc(-c2ccc(OC)cc2)c(=O)c2c(F)ccc(OCC3CC3)c21 [Example 66, 8-Cyclopropylmethoxy-1-ethyl-5-fluoro-3-(4-methoxyphenyl)-1H-quinolin-4-one] | 150 to 152 °C | 66% | 72% | 83% | 77% | 60%
CCCOc1ccc(F)c2c(=O)c(-c3ccc(OC(F)(F)F)cc3)c(C)[nH]c12 [Example 70, 5-Fluoro-2-methyl-8-propoxy-3-(4-trifluoromethoxyphenyl)-1H-quinolin-4-one] | 167 to 168 °C | 56% | 57% | 67% | 71% | 63%
COc1ccc(-c2c[nH]c3c(-c4ccco4)ccc(F)c3c2=O)cc1 [Example 86, 5-Fluoro-8-furan-2-yl-3-(4-methoxyphenyl)-1H-quinolin-4-one] | 209 to 211 °C | 52% | 59% | 68% | 61% | 39%
COc1ccc(-c2c[nH]c3c(-c4ccsc4)ccc(F)c3c2=O)cc1 [Example 87, 5-Fluoro-3-(4-methoxyphenyl)-8-thiophen-3-yl-1H-quinolin-4-one] | 183 to 184 °C | 63% | 66% | 79% | 63% | 51%
CCCOc1ccc(F)c2c(=O)c(-c3ccc(OC)cc3)cn(C)c12 [Example 91, 5-Fluoro-3-(4-methoxyphenyl)-1-methyl-8-propoxy-1H-quinolin-4-one] | 147 to 148 °C | 65% | 69% | 81% | 82% | 83%

Further lines, with some results ahead:

melting point | Compound | activity at 0.01 µg/mL [1] | activity at 0.03 µg/mL [1] | activity at 0.1 µg/mL [1] | activity at 0.3 µg/mL [1] | activity at 1 µg/mL [1]
162 to 163 °C | CCCOc1ccc(F)c2c(=O)c(-c3ccc(OCC4CC4)cc3)c[nH]c12 [Example 35, 3-(4-Cyclopropylmethoxyphenyl)-5-fluoro-8-propoxy-1H-quinolin-4-one] | 75% | 88% | 99% | 95% | 65%
142 to 144 °C | COCCOc1ccc(F)c2c(=O)c(-c3ccc(OC)cc3)c[nH]c12 [Example 36, 5-Fluoro-8-(2 methoxyethoxy)-3-(4-methoxyphenyl)-1H-quinolin-4-one] | 63% | 65% | 74% | 71% | 91%
198 to 199 °C | CCCOc1ccc(F)c2c(=O)c(-c3ccc(SC)cc3)c[nH]c12 [Example 38, 5-Fluoro-3-(4-methylsulfanylphenyl)-8-propoxy-1H-quinolin-4-one] | 66% | 67% | 86% | 81% | 78%
153 to 154 °C | CCCOc1ccc(F)c2c(=O)c(-c3ccc(CC)cc3)c[nH]c12 [Example 53, 3-(4-Ethylphenyl)-5-fluoro-8-propoxy-1H-quinolin-4-one] | 53% | 56% | 67% | 60% | 67%
211 to 213 °C | CCCOc1ccc(F)c2c(=O)c(-c3cccs3)c[nH]c12 [Example 59, 5-Fluoro-8-propoxy-3-thiophen-2-yl-1H-quinolin-4-one] | 53% | 56% | 67% | 66% | 54%
206 to 207 °C | CCCOc1ccc(F)c2c(=O)c(-c3ccc(N(C)C)cc3)c[nH]c12 [Example 61, 3-(4-Dimethylaminophenyl)-5-fluoro-8-propoxy-1H-quinolin-4-one] | 70% | 65% | 85% | 80% | 86%
217 to 218 °C | CCCOc1ccc(F)c2c(=O)c(-c3ccc(OC)c(OC)c3)c[nH]c12 [Example 62, 3-(3,4-Dimethoxyphenyl)-5-fluoro-8-propoxy-1H-quinolin-4-one] | 66% | 62% | 79% | 84% | 80%
215 to 216 °C | CCCOc1ccc(F)c2c(=O)c(-c3ccc(OC)nc3)c[nH]c12 [Example 63, 5-Fluoro-3-(6-methoxypyridin-3-yl)-8-propoxy-1H-quinolin-4-one] | 58% | 65% | 74% | 75% | 85%
221 to 222 °C | CCCOc1ccc(F)c2c(=O)c(-c3ccc(CC)cc3)c(C)[nH]c12 [Example 71, 3-(4-Ethylphenyl)-5-fluoro-2-methyl-8-propoxy-1H-quinolin-4-one] | 56% | 61% | 73% | 78% | 72%
